Assay [1] has as its target T1, TrCla4 (Trichophyton rubrum, UniProt F2SMN8).
T1 construct: gene TERG_04196; 3xHA-TrCla4 immunoprecipitated from T. rubrum; with TrRac
T1 sequence (F2SMN8 1-888): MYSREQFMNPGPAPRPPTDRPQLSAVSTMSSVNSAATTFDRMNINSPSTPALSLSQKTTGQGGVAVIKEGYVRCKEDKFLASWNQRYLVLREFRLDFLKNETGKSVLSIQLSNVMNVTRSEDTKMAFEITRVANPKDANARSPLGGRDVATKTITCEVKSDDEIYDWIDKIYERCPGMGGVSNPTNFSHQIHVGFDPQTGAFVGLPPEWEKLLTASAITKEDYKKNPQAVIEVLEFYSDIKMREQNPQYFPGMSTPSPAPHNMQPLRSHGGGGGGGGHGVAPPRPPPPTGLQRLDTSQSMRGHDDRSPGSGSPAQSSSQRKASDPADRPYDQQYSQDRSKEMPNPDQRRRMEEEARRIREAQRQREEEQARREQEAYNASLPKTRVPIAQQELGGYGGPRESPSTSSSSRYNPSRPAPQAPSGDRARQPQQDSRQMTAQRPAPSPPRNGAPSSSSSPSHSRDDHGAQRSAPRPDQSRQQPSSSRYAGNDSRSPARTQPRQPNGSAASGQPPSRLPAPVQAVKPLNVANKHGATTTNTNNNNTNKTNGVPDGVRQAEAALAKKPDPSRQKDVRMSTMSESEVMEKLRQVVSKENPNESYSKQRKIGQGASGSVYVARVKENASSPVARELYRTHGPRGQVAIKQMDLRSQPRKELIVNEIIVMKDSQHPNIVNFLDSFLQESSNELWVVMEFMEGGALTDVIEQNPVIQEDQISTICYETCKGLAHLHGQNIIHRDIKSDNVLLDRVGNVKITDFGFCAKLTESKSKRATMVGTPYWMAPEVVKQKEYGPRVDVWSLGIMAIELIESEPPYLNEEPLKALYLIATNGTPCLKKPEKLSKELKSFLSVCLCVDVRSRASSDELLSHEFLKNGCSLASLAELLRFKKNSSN
The assay can be described thus: Kinase-Glo ATP consumption assay of immunoprecipitated 3xHA-TrCla4 with recombinant TrRac. Type of assay: biochemical.

The target of assay [2] is T2, TrCla4 (Trichophyton rubrum, UniProt F2SMN8).
T2 construct: gene TERG_04196; His-, Tf- and Flag-tagged TrCla4 (E. coli BL21 lysate, Ni NTA pull-down); also immunoprecipitated 3xHA-TrCla4
As to the kind of experiment: pull-down of purified GTPγS-TrRac by Tf-TrCla4 with IPA-3; also Kinase-Glo assay of immunoprecipitated 3xHA-TrCla4. Type of assay: biochemical. Background: Kinase-Glo reads ATP consumption through a luciferase reaction.

For orientation: pIC50 means −log10 of the IC50, conventionally taken in molar units. Low readings indicate a high IC50, high ones a low IC50.

pIC50: −log10 of the molar value.

Take `CCn1c(=O)c(-c2ccc(Cl)cc2Cl)cc2cnc(Nc3ccc(N4CCNCC4)c(F)c3)nc21` [FRAX486]: the “Kinase-Glo ATP consumption assay of immunoprecipitated 3xHA-TrCla4 with recombin” value on TrCla4 [1] was “Both FRAX486 and IPA-3 inhibited the TrRac-dependent ATPase activity of 3xHA-TrCla4 (Fig. 5D)”.
Turning to `Oc1ccc2ccccc2c1SSc1c(O)ccc2ccccc12` [IPA-3], the negative-log IC50 (pIC50) against TrCla4 [2] is 5.64.

For the origin of these results see publication PMC10714743, “TrCla4 promotes actin polymerization at the hyphal tip and mycelial growth in Trichophyton rubrum” (Microbiology Spectrum, 2023).
